Here are results for nine compounds from patent US4895589A, “Heterocyclic compounds” (Imperial Chemical Industries PLC, priority 1985, dated 1990).

Where two headings read alike, the source gives them in different places.

For experiment [1], the system named is Wheat. Put plainly: Whole Plant Screen (2), wheat. It counts as in vivo, Wheat (Timmo). The settings on record: WW, 4000 ppm. Here is the method: (§1) Compound numbers 12-13, 16-17 and 19-20 were tested on an alternative whole plant screen (2). The compounds were tested for plant growth regulator activity against five species for various growth effects relevant to plant growth regulation.
The plant species used in this screen are presented in Table IV with the leaf stage at which they were sprayed. Each chemical was applied at 4000 ppm (4 kg/ha in a 1000 l/ha field volume) using a tracksprayer and a SS8004E (Teejet) nozzle. […]
After 2-6 weeks in the glasshouse, depending on the time of year, the plants were visually assessed for morphological characteristics. Formulation blanks were used as controls to assess the plants. […]

Experiment [2] deals with Rice. Put plainly: Whole Plant Screen (2), rice. It counts as in vivo, Rice (Ishikari). The settings on record: RC, 4000 ppm. Here is the method: (§2) After 2-6 weeks in the glasshouse, depending on the time of year, the plants were visually assessed for morphological characteristics. Formulation blanks were used as controls to assess the plants.
(§3) Compound numbers 1, 5 and 7 (of the present invention) were tested against compounds A, B, C and D (compound Nos. 12, 2, 24 and 50 of Table 1 EP No. 0052424) on whole plant screen (2). The compounds were tested of plant growth regulator activity against five species and for various growth effects relevant to plant growth regulation. The structures are set out in FIG. 1.
(§4) The plant species used in this screen are presented in Table XII with the leaf stage at which they were sprayed Each chemical was applied at 4000 ppm (4 kg/ha in a 1000 l/ha field volume) using a tracksprayer and a SS8004E (Teejet) nozzle. […]

The next experiment deals with Maize. Put plainly: Whole Plant Screen (2), maize. The experiment is classed as in vivo, Maize (Earliking). The settings on record: MZ, 4000 ppm. As for the experimental part:
as §1
The plant species used in this screen are presented in Table IV with the leaf stage at which they were sprayed. Each chemical was applied at 4000 ppm (4 kg/ha in a 1000 l/ha field volume) using a tracksprayer and a SS8004E (Teejet) nozzle.
After spray the plants were grown in a glasshouse with 25° C. day 22° C. night temperatures and supplementary lighting was supplied when necessary (from mercury vapour lamps), to provide a 16 hour photoperiod. The exception to this were the temperate cereals, wheat and barley which were grown in 16° C. day 13° C. night temperatures.
as §2, §3
The plant species used in this screen are presented in Table XII with the leaf stage at which they were sprayed Each chemical was applied at 4000 ppm (4 kg/ha in a 1000 l/ha field volume) using a tracksprayer and a SS8004E (Teejet) nozzle.
After spray the plants were grown in a glasshouse with 25° C. day/22° C. night temperatures and supplementary lighting was supplied when necessary (from mercury vapour lamps), to provide a 16 hour photoperiod. The exception to this were the temperate cereals, wheat and barley which were grown in 16° C. day/13° C. night temperatures.

In experiment [3] the test system is Rice. The experiment can be described thus: Intermediate Retardant Test, rice. The settings on record: Oryza sativa, 672 h, ~28 days, read-out: Percentage Reduction in Height of Rice (Compared to formulation blank). It counts as in vivo, Rice (Ishikari). Here is the method:
(§5) Three species are involved in this test RICE, SPRING-BARLEY and APPLES. The variety and growth stages at spray are outlined in Table VI. Compounds were applied at 1000 ppm and 4000 ppm respectively (1 kg and 4 kg ha^-1 at a field volume of 1000 l/ha^-1) as an overall spray. This gives a foliar and root component in the test, i.e. this test will detect the activity of both root and foliar acting compounds. The rice was grown in 4" `paddy` pots, i.e. the roots and bottom of the stems are immersed in water under conditions corresponding to those in paddy fields. Spring barley and apples were grown in 4" pots. The plants were assessed for height to top-most ligule at approximately 28 days after treatment for spring barley and rice and for height to apex at approximately 28 days after the treatment for apples. In each case the result for the 1000 ppm and 4000 ppm test for each compound is compared to the height of the formulation blank in that test, presented as a percentage reduction in height compared to the formulation blank.
as §5, with “in Table XIV. Compounds were” for “in Table VI. Compounds were”, “that test, and presented as” for “that test, presented as”

The next experiment deals with Spring Barley. The experiment can be described thus: Intermediate Retardant Test, spring barley. The experiment is classed as in vivo, Spring Barley (Atem/kym). The settings on record: Hordeum vulgare, 672 h, ~28 days, read-out: Percentage Reduction in Height of Spring Barley (Compared to formulation blank). Here is the method: as §5
as §5, with “in Table XIV. Compounds were” for “in Table VI. Compounds were”, “that test, and presented as” for “that test, presented as”

The test system of the next experiment is Apples. Put plainly: Intermediate Retardant Test, apples. The experiment is classed as in vivo, Apples (Red Delicious). The settings on record: 672 h, ~28 days, read-out: Percentage Reduction in Height of Apples (Compared to formulation blank). Here is the method:
as §5
as §5, with “in Table XIV. Compounds were” for “in Table VI. Compounds were”, “that test, and presented as” for “that test, presented as”

For experiment [4], the system named is plant species of Whole Plant Screen (1) or (2). Put plainly: Across screen comparison: total retardation relative to paclobutrazol (Whole Plant Screens (1) and (2)). It counts as in vivo. The settings on record: for Total Retardation expressed as a percentage of the total retardation caused by paclobutrazol: compounds of EP 0052424, Table XI. From the text: The following Example is a general indicative comparison of compounds from EP No. 0052424 with compounds from the preferred class in the present invention. The compounds have not been side-by-side tested on this Example because of the large numbers involved but the retardant activity can be compared using a standard which has been on each test.
The compounds which are compared in this Example have been tested on one of two tests. These are the Whole Plant Screen (1) and Whole Plant Screen (2) the methods for which are described in Examples 17 and 18 respectively.
An across screen comparison between compounds is made by expressing the total retardation (ie. sum of retardation scores recorded for each species tested) caused by the compound as a percentage of the total retardation caused by the standard in that test. The standard chemical gives a measure of the performance of the test and environmental factors. By expressing the test compound activity as a percentage of the standard compound activity these factors can be eliminated . The same standard has been used in every test and this is paclobutrazol a proprietory growth regulator.

The subject of a further experiment is Barley. The experiment can be described thus: Whole Plant Screen (2), barley. It counts as in vivo, Barley (Atem). The settings on record: BR, 4000 ppm. Here is the method: as §3, §4
Experiment [5] concerns Wheat. The settings on record: WW, 4000 ppm, 2-3 weeks.
Experimental: (§6) The compounds were tested for plant growth regulator activity against up to tweleve plant species for various growth effects relevant to plant growth regulation.
(§7) After spray, the plants were grown in a glasshouse with 25° C. day/22° C. night temperatures and supplementary lighting was supplied when necessary (from mercury vapour lamps), to provide a 16 hour photoperiod. The exception to this were the temperate cereals, wheat and barley, which were grown in 16° C. day 13° C. night temperatures
(§8) After 2-3 weeks in the glasshouse, depending on the time of year, the plants were visually assessed for morphological characteristics. Formulations blanks were used as controls to assess the Plants.
Another experiment deals with Cynosurus cristatus. The settings on record: CC, 4000 ppm, 2-3 weeks.
The subject of the next experiment is Tomato. The settings on record: TO, 4000 ppm, 2-3 weeks.

Experimental for Tomato: as §6, §7, §8

In the case of `CC(C)(C)C=CC(O)(Cn1cncn1)C(C)(C)C` (stereo not shown) [A, reference compound], the “G = Greening effect” value in the experiment on Wheat [1] (side-by-side, Table XIII) is recorded as 1 (10-30%). In the experiment on Rice [2] (side-by-side, Table XIII), the “T = Tillering or side shooting” value was 2 (31-60%). Moreover, in the experiment with Maize (side-by-side, Table XIII), the “I = Interligular or internodal length reduction” value was 1 (10-30%) and the “R = Retardation” value was 1 (10-30%). Besides, in the experiment with Rice [3] (side-by-side, Table XVI), the Percent reduction in rice plant height vs formulation blank at 1000 ppm came out at 4% and the Percent reduction in rice plant height vs formulation blank at 4000 ppm was found to be 20%. In the experiment with Spring Barley (side-by-side, Table XV), the height reduction vs blank at 1000 ppm is 5% and the height reduction vs blank at 4000 ppm came to 13%. For the same compound, in the experiment with Apples (side-by-side, Table XVII), the percent reduction in plant height vs formulation blank at 1000 ppm was determined as 2% and the percent reduction in plant height vs formulation blank at 4000 ppm is 14%. Further, in experiment [4] (Tables X and XI, across screen comparison), the “range of activity / superiority in comparison with EP 0052424 compounds” value was “higher range of activity than the rest of the compounds”. In addition, the “Total Retardation expressed as a percentage of the total retardation caused by paclobutrazol” value in experiment [4] is on record as 62.5 % of paclobutrazol.
With `CC(C)(C)C(O)(C=Cc1ccc(Cl)cc1)Cn1cncn1` (stereo not shown) [B, reference compound], in the experiment with Barley (side-by-side, Table XIII), the “T = Tillering or side shooting” value is on record as 1 (10-30%). For the same compound, in the experiment with Rice [2] (side-by-side, Table XIII), the “I = Interligular or internodal length reduction” value is 1 (10-30%) and the “R = Retardation” value is given as 1 (10-30%). In the experiment with Maize (side-by-side, Table XIII), the “I = Interligular or internodal length reduction” value is on record as 1 (10-30%) and the “R = Retardation” value was 1 (10-30%). Also, in the experiment with Rice [3] (side-by-side, Table XVI), the Percent reduction in rice plant height vs formulation blank at 1000 ppm came out at 3% and the Percent reduction in rice plant height vs formulation blank at 4000 ppm worked out at 11%. Also, in the experiment on Spring Barley (side-by-side, Table XV), the height reduction vs blank at 1000 ppm was determined as 8% and the height reduction vs blank at 4000 ppm came to 7%. Besides, in the experiment on Apples (side-by-side, Table XVII), the percent reduction in plant height vs formulation blank at 1000 ppm is 0% and the percent reduction in plant height vs formulation blank at 4000 ppm is 3%. The “Total Retardation expressed as a percentage of the total retardation caused by paclobutrazol” value in [4] is listed as 43.1 % of paclobutrazol.
As to `CC(C)(C)C(O)(C#Cc1ccc(Cl)cc1)Cn1cncn1` (stereo not shown) [C, reference compound], in the experiment with Rice [3] (side-by-side, Table XVI), the Percent reduction in rice plant height vs formulation blank at 1000 ppm turned out to be 5% and the Percent reduction in rice plant height vs formulation blank at 4000 ppm is 13%. Further, in the experiment on Spring Barley (side-by-side, Table XV), the height reduction vs blank at 1000 ppm amounted to 4% and the height reduction vs blank at 4000 ppm was 6%. Also, in the experiment on Apples (side-by-side, Table XVII), the percent reduction in plant height vs formulation blank at 1000 ppm came out at 0% and the percent reduction in plant height vs formulation blank at 4000 ppm was found to be 0%. In addition, the “Total Retardation expressed as a percentage of the total retardation caused by paclobutrazol” value in [4] is reported as 7.1 % of paclobutrazol.
Consider `CCCC#CC(O)(Cn1cncn1)C(C)(C)C` (stereo not shown) [Compound 11], for which the height reduction vs blank at 1000 ppm with Spring Barley (Table VIII) was determined as 24%. For the same compound, in the experiment with Spring Barley (Table VIII), the height reduction vs blank at 4000 ppm turned out to be 49.4%. In addition, the entries for the “Retardation score (1-3) with greening (G), apical damage (A), tillering/side shooting (T)” value with Wheat [5], with Cynosurus cristatus and with Tomato were 1 (10-30% retardation), 1 (10-30% retardation) and 2T, respectively.
With `CCCC#CC(Cn1cncn1)(OC)C(C)(C)C` (stereo not shown) [Compound 12], in the experiment with Maize (2-6 weeks, Table V), the “I = Interligular or internodal length reduction” value is recorded as 1 (10-30%) and the “R = Retardation” value was 1 (10-30%). Further, in the experiment with Rice [3] (Table VII), the Percent reduction in rice plant height vs formulation blank at 1000 ppm came out at 23.8% and the Percent reduction in rice plant height vs formulation blank at 4000 ppm stood at 49.7%. Further, in the experiment with Spring Barley (Table VIII), the height reduction vs blank at 1000 ppm worked out at 2.7% and the height reduction vs blank at 4000 ppm came out at 12.6%. In the experiment with Apples (Table IX), the percent reduction in plant height vs formulation blank at 1000 ppm is 15.7% and the percent reduction in plant height vs formulation blank at 4000 ppm stood at 33.6%.
`CCCC#CC(O)(Cn1cncn1)C(C)(C)CCl` (stereo not shown) [Compound 19]: the percent reduction in plant height vs formulation blank at 4000 ppm in the experiment on Apples (Table IX) came to 36.6%.
With `CCCCCC#CC(O)(Cn1cncn1)C(C)(C)CF` (stereo not shown) [Compound 20], the “I = Interligular or internodal length reduction” value with Barley (2-6 weeks, Table V) is 1 (10-30%). Moreover, in the experiment on Wheat [1] (2-6 weeks, Table V), the “G = Greening effect” value is 2 (31-60%) and the “T = Tillering or side shooting” value is given as 2 (31-60%). Besides, the “T = Tillering or side shooting” value in the experiment on Rice [2] (2-6 weeks, Table V) is 1 (10-30%).
As for `CCCCCCC#CC(O)(Cn1cncn1)C(C)(C)CF` (stereo not shown) [Compound 21], in the experiment with Apples (Table IX), the percent reduction in plant height vs formulation blank at 1000 ppm is 10% and the percent reduction in plant height vs formulation blank at 4000 ppm is 0%.
As to `COC(C)(C)C#CC(O)(Cn1cncn1)C(C)(C)C` (stereo not shown) [D, reference compound], in the experiment on Rice [3] (side-by-side, Table XVI), the Percent reduction in rice plant height vs formulation blank at 1000 ppm was found to be 2% and the Percent reduction in rice plant height vs formulation blank at 4000 ppm was found to be 7%. For the same compound, in the experiment on Spring Barley (side-by-side, Table XV), the height reduction vs blank at 1000 ppm came out at 9% and the height reduction vs blank at 4000 ppm is 13%. For the same compound, in the experiment on Apples (side-by-side, Table XVII), the percent reduction in plant height vs formulation blank at 1000 ppm worked out at 0% and the percent reduction in plant height vs formulation blank at 4000 ppm was determined as 0%. Further, in [4], the “Total Retardation expressed as a percentage of the total retardation caused by paclobutrazol” value is reported as 3.6 % of paclobutrazol.
